Values quoted from earlier work, collected in patent US5780426A, “Fivemer cyclic peptide inhibitors of diseases involving αv β3” (IXSYS, Incorporated, priority 1995, dated 1998).
Bridge positions count the residues as written; N and C are the ends. Ends that are not written are not given here.

Experiments:
integrin αv β3 = integrin αv β3 (Homo sapiens, UniProt P05106+P06756); conditions: Koivunen et al. 1995
osteoclasts = conditions: Horton et al. 1991
αv β3 receptor = conditions: chicken embryo tumor model; Brooks et al., Cell 1994
angiogenesis = conditions: Nicosia and Bonanno 1991

Chain of integrin αv β3 (P06756 31-889 limits assumed): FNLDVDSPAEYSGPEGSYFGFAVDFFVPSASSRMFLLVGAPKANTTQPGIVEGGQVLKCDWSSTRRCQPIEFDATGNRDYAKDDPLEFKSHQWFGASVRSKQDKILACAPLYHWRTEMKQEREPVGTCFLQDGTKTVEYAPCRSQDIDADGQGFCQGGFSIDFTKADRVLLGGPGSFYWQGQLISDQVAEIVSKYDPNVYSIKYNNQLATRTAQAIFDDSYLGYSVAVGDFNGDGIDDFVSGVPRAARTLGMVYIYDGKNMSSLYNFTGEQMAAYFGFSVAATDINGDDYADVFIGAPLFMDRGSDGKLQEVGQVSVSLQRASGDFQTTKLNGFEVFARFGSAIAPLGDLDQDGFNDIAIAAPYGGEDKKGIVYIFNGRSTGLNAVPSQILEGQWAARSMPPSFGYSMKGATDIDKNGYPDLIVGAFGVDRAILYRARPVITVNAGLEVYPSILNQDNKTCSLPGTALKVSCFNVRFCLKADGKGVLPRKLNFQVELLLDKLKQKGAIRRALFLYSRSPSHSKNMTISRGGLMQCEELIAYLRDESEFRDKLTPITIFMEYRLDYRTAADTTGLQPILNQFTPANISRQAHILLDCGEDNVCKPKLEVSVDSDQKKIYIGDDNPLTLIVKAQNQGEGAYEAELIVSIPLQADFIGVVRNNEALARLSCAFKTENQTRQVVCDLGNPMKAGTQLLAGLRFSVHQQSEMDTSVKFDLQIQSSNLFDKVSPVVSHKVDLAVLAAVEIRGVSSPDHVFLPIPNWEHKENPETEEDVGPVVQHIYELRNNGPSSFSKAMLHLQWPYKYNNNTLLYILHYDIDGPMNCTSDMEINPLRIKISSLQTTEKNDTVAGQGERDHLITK
Chain of integrin αv β3 (P06756 891-1048 partner limits assumed): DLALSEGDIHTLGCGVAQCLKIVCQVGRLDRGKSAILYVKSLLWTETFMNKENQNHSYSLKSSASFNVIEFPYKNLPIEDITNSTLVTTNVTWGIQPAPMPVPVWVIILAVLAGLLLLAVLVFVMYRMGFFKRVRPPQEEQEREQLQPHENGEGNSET
Chain of integrin αv β3 (P05106 27-788): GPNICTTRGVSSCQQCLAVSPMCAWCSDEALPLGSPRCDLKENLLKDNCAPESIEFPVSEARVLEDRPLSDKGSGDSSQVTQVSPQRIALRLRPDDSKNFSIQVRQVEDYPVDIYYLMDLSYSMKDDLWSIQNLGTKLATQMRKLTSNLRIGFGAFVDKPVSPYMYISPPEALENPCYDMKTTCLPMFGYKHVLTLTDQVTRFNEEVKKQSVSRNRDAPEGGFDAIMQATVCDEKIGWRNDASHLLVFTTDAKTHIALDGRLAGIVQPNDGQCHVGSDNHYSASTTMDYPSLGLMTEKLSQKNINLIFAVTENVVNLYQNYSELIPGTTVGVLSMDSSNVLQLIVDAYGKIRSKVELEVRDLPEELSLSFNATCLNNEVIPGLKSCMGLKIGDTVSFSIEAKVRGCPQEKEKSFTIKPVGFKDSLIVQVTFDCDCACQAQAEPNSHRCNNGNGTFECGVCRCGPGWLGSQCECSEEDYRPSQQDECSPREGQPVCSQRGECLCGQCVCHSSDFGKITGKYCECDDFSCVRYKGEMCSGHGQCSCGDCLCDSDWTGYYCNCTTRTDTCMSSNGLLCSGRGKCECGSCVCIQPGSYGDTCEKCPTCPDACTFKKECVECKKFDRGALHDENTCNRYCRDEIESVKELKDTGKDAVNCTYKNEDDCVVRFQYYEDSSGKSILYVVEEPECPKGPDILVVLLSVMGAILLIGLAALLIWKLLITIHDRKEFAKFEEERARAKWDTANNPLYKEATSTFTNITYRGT

ACPSRLDSPCG (disulfide 2-10 (inferred)) [RLD peptide synthesized from a random cyclic phage library (Koivunen et al.)]
selectivity for the integrin αv β3 (integrin αv β3): only partially selective | activity relative to an RGD peptide (fold lower) (integrin αv β3; binding and cell adhesion assays): 100-1000 fold

GRGDSP [Arg-Gly-Asp containing peptide]
osteoclast function (osteoclasts): disruption of osteoclast function

CC(C)[C@@H]1NC(=O)[C@@H](Cc2ccccc2)NC(=O)[C@H](CC(=O)O)NC(=O)CNC(=O)[C@H](CCCN=C(N)N)NC1=O [cyclo-RGDfv]
inhibition of angiogenesis / neovascularization (αv β3 receptor): inhibit the neovascularization process

Gly-Arg-Gly-Asp-Ser (GRGDS)
inhibition of angiogenesis in vitro (angiogenesis): inhibits angiogenesis in vitro
